Source: PubChem BioAssay (NCI)
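96-well plates; 48 h exposure; 5 concentrations. Endpoints by linear interpolation between flanking doses. Not reached: highest tested concentration assigned. Here, GI50 denotes the concentration required for 50% inhibition of growth. TGI marks complete inhibition of growth.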

What was measured:
Experiment in all cases: inhibition of tumour cell growth, NCI panel, 48 h
SK-MEL-5 melanoma = system: SK-MEL-5 melanoma
SNB-75 CNS = system: SNB-75 CNS
786-0 renal = system: 786-0 renal
SW-620 colon = system: SW-620 colon
PC-3 prostate = system: PC-3 prostate
SF-295 CNS = system: SF-295 CNS
SK-MEL-2 melanoma = system: SK-MEL-2 melanoma
DU-145 prostate = system: DU-145 prostate
M14 melanoma = system: M14 melanoma
RPMI-8226 leukemia = system: RPMI-8226 leukemia

CCCCCCNC(=O)c1cc(CCc2cc(O)ccc2O)ccc1O
TGI (SK-MEL-5 melanoma): 15.6 µM
TGI (SNB-75 CNS): 14.4 µM
TGI (786-0 renal): 4.26 µM
TGI (SW-620 colon): > 75.9 µM
TGI (PC-3 prostate): 6.49 µM
TGI (SF-295 CNS): 31.3 µM
TGI (SK-MEL-2 melanoma): 7.4 µM
TGI (DU-145 prostate): 22.7 µM
TGI (M14 melanoma): 18.4 µM

C/C(=C\c1ccccc1)C(=O)NCc1ccc(C(=O)NCCC(C)C)cc1
TGI (RPMI-8226 leukemia): > 100 µM
TGI (SK-MEL-5 melanoma): > 100 µM
TGI (SNB-75 CNS): 89.4 µM
TGI (786-0 renal): > 100 µM
TGI (SW-620 colon): > 100 µM
TGI (PC-3 prostate): > 100 µM
TGI (SF-295 CNS): > 100 µM
TGI (SK-MEL-2 melanoma): > 100 µM
TGI (DU-145 prostate): > 100 µM
TGI (M14 melanoma): > 100 µM

CN(c1cc2ncc(=O)[nH]c2cc1NC(N)=NCc1ccc(Cl)cc1)C1CCCCC1
GI50 (RPMI-8226 leukemia): 3.54 µM
TGI (RPMI-8226 leukemia): 13.4 µM
GI50 (SK-MEL-5 melanoma): 8.18 µM
TGI (SK-MEL-5 melanoma): 15.3 µM
GI50 (SNB-75 CNS): 2.87 µM
TGI (SNB-75 CNS): 10.1 µM
GI50 (SW-620 colon): 4.33 µM
TGI (SW-620 colon): 11.2 µM
GI50 (PC-3 prostate): 5.94 µM
TGI (PC-3 prostate): 12.5 µM
GI50 (SF-295 CNS): 7.42 µM
TGI (SF-295 CNS): 14.9 µM
GI50 (SK-MEL-2 melanoma): 8.83 µM
TGI (SK-MEL-2 melanoma): 18.3 µM
GI50 (DU-145 prostate): 7.56 µM
TGI (DU-145 prostate): 14.3 µM
GI50 (M14 melanoma): 7.36 µM
TGI (M14 melanoma): 14.9 µM

O=C(C=P(c1ccccc1)(c1ccccc1)c1ccccc1)c1cccc(-c2cccc([N+](=O)[O-])c2)c1
TGI (RPMI-8226 leukemia): 4.53 µM
TGI (SK-MEL-5 melanoma): 5.93 µM
TGI (SNB-75 CNS): 7.62 µM
TGI (786-0 renal): > 100 µM
TGI (SW-620 colon): 26.8 µM
TGI (PC-3 prostate): 20.9 µM
TGI (SF-295 CNS): 35.3 µM
TGI (DU-145 prostate): > 100 µM
TGI (M14 melanoma): > 100 µM

CSc1nc(NC2OCC(OC(C)=O)C(OC(C)=O)C2OC(C)=O)c(N=C(C)C(C)=O)c(=O)[nH]1 (stereo not drawn)
TGI (RPMI-8226 leukemia): > 100 µM
TGI (SK-MEL-5 melanoma): > 100 µM
TGI (SNB-75 CNS): > 100 µM
TGI (SW-620 colon): > 100 µM
TGI (SF-295 CNS): > 100 µM
TGI (SK-MEL-2 melanoma): > 100 µM
TGI (M14 melanoma): > 100 µM

Cc1nc2c(n1C)C(=O)c1nc(CBr)[nH]c(=O)c1C2=O
TGI (RPMI-8226 leukemia): > 100 µM
TGI (SK-MEL-5 melanoma): 39 µM
TGI (SW-620 colon): > 100 µM
TGI (SF-295 CNS): 5.27 µM
TGI (M14 melanoma): > 100 µM

COc1cc(/C=N/n2c(Cc3ccc(Cl)cc3)n[nH]c2=O)cc(OC)c1OC
TGI (SNB-75 CNS): > 100 µM
TGI (786-0 renal): > 100 µM
TGI (SW-620 colon): > 100 µM
TGI (PC-3 prostate): > 100 µM
TGI (SF-295 CNS): > 100 µM
TGI (SK-MEL-2 melanoma): > 100 µM
TGI (M14 melanoma): > 100 µM

N#CC(c1nc2ccccc2s1)c1ncnc(Cl)c1[N+](=O)[O-] (stereo not drawn)
TGI (RPMI-8226 leukemia): > 100 µM
TGI (SK-MEL-5 melanoma): 30 µM
TGI (SNB-75 CNS): > 100 µM
TGI (786-0 renal): 42.7 µM
TGI (SW-620 colon): 35.5 µM
TGI (SF-295 CNS): > 100 µM
TGI (DU-145 prostate): > 100 µM
TGI (M14 melanoma): 34.3 µM

COc1ccc(C2CC(c3cccc(Nc4ccncc4)c3)=NN2c2ccc(Cl)cc2)cc1 (stereo not drawn)
GI50 (SK-MEL-5 melanoma): 1.77 µM
TGI (SK-MEL-5 melanoma): 3.18 µM
GI50 (SNB-75 CNS): 1.41 µM
TGI (SNB-75 CNS): 3.01 µM
GI50 (SW-620 colon): 1.61 µM
TGI (SW-620 colon): 3.19 µM
GI50 (PC-3 prostate): 1.44 µM
TGI (PC-3 prostate): 2.96 µM
GI50 (SF-295 CNS): 1.85 µM
TGI (SF-295 CNS): 3.3 µM
GI50 (SK-MEL-2 melanoma): 2.07 µM
TGI (SK-MEL-2 melanoma): 4.28 µM
GI50 (DU-145 prostate): 1.74 µM
TGI (DU-145 prostate): 3.17 µM
GI50 (M14 melanoma): 1.61 µM
TGI (M14 melanoma): 3.24 µM

N/C(=N\S(=O)(=O)c1cccc2nsnc12)Nc1ccc(Cl)cc1
TGI (RPMI-8226 leukemia): > 100 µM
TGI (SK-MEL-5 melanoma): 31.2 µM
TGI (SNB-75 CNS): > 100 µM
TGI (786-0 renal): > 100 µM
TGI (SW-620 colon): > 100 µM
TGI (PC-3 prostate): 55 µM
TGI (SF-295 CNS): > 100 µM
TGI (SK-MEL-2 melanoma): 26.3 µM
TGI (DU-145 prostate): > 100 µM
TGI (M14 melanoma): > 100 µM

CC(C)(C)OC(=O)NCC(=O)NC1c2ccsc2/C(=N/O)[C@H]1O (stereo partly drawn)
TGI (SK-MEL-5 melanoma): > 100 µM
TGI (SW-620 colon): > 100 µM
TGI (PC-3 prostate): > 100 µM
TGI (SF-295 CNS): > 100 µM
TGI (SK-MEL-2 melanoma): > 100 µM
TGI (DU-145 prostate): > 100 µM
TGI (M14 melanoma): > 100 µM

N#Cc1c(NC(=S)Nc2ccc(Cl)cc2)sc2c1CCCC2
TGI (RPMI-8226 leukemia): 67.9 µM
TGI (SK-MEL-5 melanoma): > 100 µM
TGI (SNB-75 CNS): > 100 µM
TGI (SW-620 colon): > 100 µM
TGI (PC-3 prostate): > 100 µM
TGI (SF-295 CNS): > 100 µM
TGI (SK-MEL-2 melanoma): > 100 µM
TGI (DU-145 prostate): > 100 µM

COCO[C@@H]1C[C@H]2C(=O)N(COC)c3ccccc3C(=O)N2C1
TGI (SK-MEL-5 melanoma): > 100 µM
TGI (SNB-75 CNS): > 100 µM
TGI (786-0 renal): > 100 µM
TGI (SW-620 colon): > 100 µM
TGI (PC-3 prostate): > 100 µM
TGI (SF-295 CNS): > 100 µM
TGI (SK-MEL-2 melanoma): > 100 µM
TGI (DU-145 prostate): > 100 µM
TGI (M14 melanoma): > 100 µM

O=C1N(c2ccccc2)C2(c3ccccc3)CC3CCCC13S2 (stereo not drawn)
TGI (RPMI-8226 leukemia): 98.8 µM
TGI (SK-MEL-5 melanoma): > 100 µM
TGI (786-0 renal): > 100 µM
TGI (SW-620 colon): > 100 µM
TGI (PC-3 prostate): 90.3 µM
TGI (SF-295 CNS): > 100 µM
TGI (SK-MEL-2 melanoma): 80.9 µM
TGI (DU-145 prostate): > 100 µM
TGI (M14 melanoma): > 100 µM

C=CCc1cc(-c2cc(CC=C)c(O)c(CNC)c2)cc(CNC)c1O
TGI (RPMI-8226 leukemia): 50.6 µM
TGI (SK-MEL-5 melanoma): 29.7 µM
TGI (SNB-75 CNS): 24.3 µM
TGI (786-0 renal): 29 µM
TGI (SW-620 colon): 31.7 µM
TGI (SF-295 CNS): 31 µM
TGI (SK-MEL-2 melanoma): 32.9 µM
TGI (M14 melanoma): 30.5 µM

CC(=O)Oc1c(C)c2c(O)c3c1C1=C(OCOC1=C(C)C3=O)/C(C)=C\C(C)(O)C(O)C(C)C(O)C1C(=O)OC(C(C)C1O)C(C)(O)/C=C/C=C(C)C(=O)N2 (stereo not drawn)
TGI (RPMI-8226 leukemia): > 100 µM
TGI (SK-MEL-5 melanoma): > 100 µM
TGI (SNB-75 CNS): > 100 µM
TGI (786-0 renal): > 100 µM
TGI (SW-620 colon): > 100 µM
TGI (PC-3 prostate): > 100 µM
TGI (SF-295 CNS): > 100 µM
TGI (SK-MEL-2 melanoma): > 100 µM
TGI (DU-145 prostate): > 100 µM
TGI (M14 melanoma): > 100 µM

COC(=O)c1cc2c3c(cc(N(C)C)c2[nH]1)N(C(=O)c1cc2cc(OC)c(OC)c(OC)c2[nH]1)CC3CCl (stereo not drawn)
TGI (RPMI-8226 leukemia): 0.0324 µM
TGI (SK-MEL-5 melanoma): 0.00591 µM
TGI (SNB-75 CNS): 0.00422 µM
TGI (786-0 renal): 0.00487 µM
TGI (PC-3 prostate): 25 µM
TGI (SF-295 CNS): 0.226 µM
TGI (SK-MEL-2 melanoma): 0.0659 µM
TGI (DU-145 prostate): < 0.0025 µM
TGI (M14 melanoma): 0.00848 µM

COc1ccc2c(c1)CCN=C2Cc1cc(OC)c(OC)cc1CCCl
TGI (RPMI-8226 leukemia): > 100 µM
TGI (SK-MEL-5 melanoma): 58.9 µM
TGI (SNB-75 CNS): > 100 µM
TGI (SW-620 colon): > 100 µM
TGI (PC-3 prostate): > 100 µM
TGI (SF-295 CNS): > 100 µM
TGI (SK-MEL-2 melanoma): > 100 µM
TGI (DU-145 prostate): > 100 µM
TGI (M14 melanoma): > 100 µM

C#CCn1ncc2c(SC)ncnc21
TGI (RPMI-8226 leukemia): > 100 µM
TGI (SK-MEL-5 melanoma): > 100 µM
TGI (SNB-75 CNS): 97.8 µM
TGI (786-0 renal): > 100 µM
TGI (SW-620 colon): > 100 µM
TGI (PC-3 prostate): > 100 µM
TGI (SF-295 CNS): > 100 µM
TGI (SK-MEL-2 melanoma): > 100 µM
TGI (DU-145 prostate): > 100 µM
TGI (M14 melanoma): > 100 µM

O=S1(=O)C(c2ccccc2)C(N2CCCCC2)C1C1CC2c3ccccc3C1c1ccccc12 (stereo not drawn)
TGI (RPMI-8226 leukemia): > 100 µM
TGI (SK-MEL-5 melanoma): > 100 µM
TGI (SNB-75 CNS): > 100 µM
TGI (786-0 renal): > 100 µM
TGI (SW-620 colon): > 100 µM
TGI (PC-3 prostate): > 100 µM
TGI (SF-295 CNS): > 100 µM
TGI (SK-MEL-2 melanoma): > 100 µM
TGI (DU-145 prostate): > 100 µM
TGI (M14 melanoma): > 100 µM
